# Data as given in patent US20240254199A1, “MODIFIED MAMMALIAN CELLS” (Genentech, Inc., priority 2021, published 2024).
# Assays:
# Format in all cases: cell-based, Chinese hamster
# [1] = test system: PDGFRa; assay: PDGFRa protein (western blot) and mRNA (qPCR) levels upon chemical UPR induction; conditions: seed train, mAb1-expressing CHO DG44 and CHO-K1, optimal pH
# Method: 1.5 million cells were lysed in 1× NP40 buffer (10 mM Tris, pH 8.0, 0.5% NP40, 150 mM NaCl, 10 mM DTT and 5 mM MgCl2) containing protease inhibitor cocktails (Roche EDTA free mini-tablets cocktail) for 20 min on ice. Lysates were subjected to sodium dodecyl sulfate-polyacrylamide gel electrophoresis (SDS-PAGE) (4-12% Tris glycine) and transferred to nitrocellulose membrane. After blocking with 5% milk in tris-buffered saline (TBS)-0.1% Tween buffer, the membranes were blotted with respective antibodies. Blots were visualized using HRP-conjugated anti-rabbit anti-body and SuperSignal West Dura Extended Duration Substrate. The following inhibitors were used: ATF6i (10 μM Ceapin-A7 (Gallagher, et al., 2016)), PERKi (10 μM Compound 39 (Axten, et al., 2012)), IRE1i6 (10 μM 4u8c (Cross, et al., 2012)), IRE1i9 (10 μM in-house/Genentech), PDGFRi (5-20 μM Abcam, AG-1296). […]
# An interesting phenomenon was previously described where activation of UPR in seed train culture, triggered by lower pH conditions in a particular CHO cell line, negatively affected culture growth in production media at target pH (Tung, et al., 2018). When exposed to low pH conditions, high intracellular BiP levels were detected in this cell line that correlated to low growth profiles during production and poor bioprocess outcomes (Tung, et al., 2018). […]
# [2] = test system: empty host CHO-K1 cells; assay: Seed train growth of empty host CHO-K1 cells with PDGFRa inhibitor and/or insulin
# Method: 1.5 million cells were lysed in 1× NP40 buffer (10 mM Tris, pH 8.0, 0.5% NP40, 150 mM NaCl, 10 mM DTT and 5 mM MgCl2) containing protease inhibitor cocktails (Roche EDTA free mini-tablets cocktail) for 20 min on ice. Lysates were subjected to sodium dodecyl sulfate-polyacrylamide gel electrophoresis (SDS-PAGE) (4-12% Tris glycine) and transferred to nitrocellulose membrane. After blocking with 5% milk in tris-buffered saline (TBS)-0.1% Tween buffer, the membranes were blotted with respective antibodies. Blots were visualized using HRP-conjugated anti-rabbit anti-body and SuperSignal West Dura Extended Duration Substrate. The following inhibitors were used: ATF6i (10 μM Ceapin-A7 (Gallagher, et al., 2016)), PERKi (10 μM Compound 39 (Axten, et al., 2012)), IRE1i6 (10 μM 4u8c (Cross, et al., 2012)), IRE1i9 (10 μM in-house/Genentech), PDGFRi (5-20 μM Abcam, AG-1296). The following antibodies were used: anti-PDGFRa (Cell Signaling Technology (CST), D1E1E), rabbit anti-BiP (C50B12, Cell Signaling Technology, 3177), rabbit anti-PERK (CST, C33E10), mouse anti-o-actin-HRP (AC-15) (Abcam, ab49900), rabbit anti-phospho-Akt (Ser473) (CST, D9E), rabbit anti-Akt (CST, 5G3), rabbit cleaved caspase3 (CST, asp175), goat anti-human IgG-HRP (MP Biomedicals, 0855252), rabbit IRE1a (CST, 14C10), mouse anti-phospho-IRE1, mouse anti-XBP1, rabbit anti-Bax (Abcam, ab32503), rabbit anti-Bak (CST, D4E4), donkey anti-rabbit HRP (Jackson ImmunoResearch Laboratories, Inc., 711-035-152), rabbit anti-sod2 (CST, D3×8F)
# (§1) It was previously shown that UPR-induced poor growth profiles correlated with a decrease in PDGFRa levels (FIGS. 19A and 19B) (Tung, et al., 2018). PDGFRa and insulin signaling pathways have overlapping downstream targets (FIG. 21A), however insulin signaling negatively regulates PDGFRa signaling (Cirri, et al., 2005). […]
# [3] = test system: mAb2-expressing CHO-K1 cells; assay: Fed-batch production of mAb2-expressing CHO cell line with PDGFRa inhibitor and/or insulin; conditions: added on Day 3 of fed-batch production
# Method: Fed-batch production cultures were performed as disclosed here and below in Example 2, with proprietary chemically defined medium using different vessels (e.g., tube-spin and AMBR15) along with bolus feeds on Days 3, 7 and 10 as previously mentioned (Hsu, Aulakh, Traul, & Yuk, 2012). Anti-cell aggregation agent was used in all cultures during production assay to prevent cell aggregation due to the release of DNA from dying cells. Cells were seeded at low (1-2×10^6 cells/mL) or high (10×10^6 cells/mL) seeding densities using lean or rich production media. Cultures were temperature shifted from 37° C. to 35° C. on Day 3. Titers were determined using Protein-A affinity chromatography with UV detection. Percent viability and viable cell count were determined using a Vi-Cell XR instrument (Beckman Coulter Item #383721).
# as §1
Compound,PDGFRa levels (protein and mRNA) [1],"Akt phosphorylation ([2]; insulin added to cultures with PDGFRa inhibitor, western blot)",cellular growth of cultures treated with the PDGFRa inhibitor ([2]; insulin added to seed train cultures with PDGFRa inhibitor),cell growth and viability in fed-batch production [3],"reduction of cell growth ([2]; 20 μM, empty host CHO-K1 cells, seed train media, 4 days)"
Tunicamycin,reduced at both the protein and mRNA levels,–,–,–,–
insulin,–,increased Akt phosphorylation,partially rescued cellular growth,partially rescued the observed cell growth inhibition,–
"COc1cc2ncc(-c3ccccc3)nc2cc1OC [PDGFRa inhibitor, AG-1296]",–,–,–,"significantly decreased cell growth, without affecting cell viability",approximately 50%
